Bounds are passed on as bounds.

For 24 compounds, EC50 and inhibition results are on record in patent US10166218B2, “3-(1H-indol-2-yl)-1H-pyrazolo[3,4-C]pyridines and therapeutic uses thereof” (Samumed, LLC, priority 2015, dated 2019).

One assay relates to SW480 colon cancer cells. The assay is described as follows: Cell viability assay (CellTiter-Blue) in SW480 colon cancer cells. Format: cell-based. As to conditions: Homo sapiens, 96 h, four days; for EC50: CellTiter-Blue; for inhibition at 10 µM: read-out: percent inhibition at 10 μM (given for EC50 of >10 μM). Summed up:
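Approximately 2×10^3 SW480 cells per well are seeded with compound (8 points, threefold steps, top 10 μM) and incubated four days at 37 °C. CellTiter-Blue is then added for about 3 h and fluorescence read. Non-linear regression gives EC50; for values beyond 10 μM, percent inhibition at that concentration is listed.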
Background: Resazurin is reduced to fluorescent resorufin, in cell work by metabolically active cells.

The test system of assay [1] is Wnt activity (Sp5-Luc reporter, TCF/LEF binding sites) in SW480 colon carcinoma cells. As to the kind of experiment: Screening assay for Wnt activity: Sp5-Luc reporter gene assay in stably transduced SW480 cells. Conditions: Homo sapiens; for EC50: overnight incubation; for inhibition at 10 µM: read-out: percent inhibition at 10 μM (given for EC50 of >10 μM). Type of assay: cell-based. The method, boiled down:
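Luminescence (BrightGlo) was normalised to DMSO-only wells and fitted with a four-parameter variable-slope model for EC50; beyond 10 μM, % inhibition at 10 μM is given. Stable Sp5-Luc SW480 reporter cells, 4,000/well in 1% FBS, were exposed overnight at 37 °C to compounds, top 10 μM, 1:3 dilutions, 0.1% DMSO.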
A general note: In a reporter assay the amount or activity of a reporter protein is the signal.

Consider `Cc1ccncc1-c1cc2c(-c3cc4c(-c5cccc(F)c5)cccc4[nH]3)n[nH]c2cn1` [Compound 5, 3-(4-(3-Fluorophenyl)-1H-indol-2-yl)-5-(4-methylpyridin-3-yl)-1H-pyrazolo [3,4-c]pyridine], for which the EC50 was determined as 6.84 µM in the assay with SW480 colon cancer cells and 0.59 µM in assay [1].
For the compound `O=C(Nc1cncc(-c2cc3c(-c4cc5c(-c6cccc(F)c6)cccc5[nH]4)n[nH]c3cn2)c1)c1ccccc1` [Compound 11, N-(5-(3-(4-(3-Fluorophenyl)-1H-indol-2-yl)-1H-pyrazolo[3,4-c]pyridin-5-yl)pyridin-3-yl)benzamide], the response in the assay with SW480 colon cancer cells was half-maximal at 5.42 µM (EC50). In assay [1], the inhibition at 10 µM stood at 50.2% and the EC50 is > 10 µM.
For `O=C(Nc1cncc(-c2cc3c(-c4cc5c(-c6cccc(F)c6)cccc5[nH]4)n[nH]c3cn2)c1)C1CCC1` [Compound 21, N-(5-(3-(4-(3-Fluorophenyl)-1H-indol-2-yl)-1H-pyrazolo[3,4-c]pyridin-5-yl)pyridin-3-yl)cyclobutanecarboxamide], in the assay with SW480 colon cancer cells, the inhibition at 10 µM stood at 11.5% and the 50% effective concentration (EC50) was > 10 µM. Further, the 50% effective concentration (EC50) in assay [1] was determined as 1.51 µM.
For the compound `CC(C)CC(=O)Nc1cncc(-c2cc3c(-c4cc5c(-c6ccc(F)cc6)cccc5[nH]4)n[nH]c3cn2)c1` [Compound 30, N-(5-(3-(4-(4-Fluorophenyl)-1H-indol-2-yl)-1H-pyrazolo[3,4-c]pyridin-5-yl)pyridin-3-yl)-3-methylbutanamide], in the assay with SW480 colon cancer cells, the inhibition at 10 µM is 28.3% and the concentration for a half-maximal effect (EC50) was > 10 µM. In assay [1], this compound yielded a concentration for a half-maximal effect (EC50) of 1.54 µM.
With `O=C(Cc1ccccc1)Nc1cncc(-c2cc3c(-c4cc5c(-c6ccc(F)cc6)cccc5[nH]4)n[nH]c3cn2)c1` [Compound 38, N-(5-(3-(4-(4-Fluorophenyl)-1H-indol-2-yl)-1H-pyrazolo[3,4-c]pyridin-5-yl)pyridin-3-yl)-2-phenylacetamide], the 50% effective concentration (EC50) in the assay on SW480 colon cancer cells was 4.32 µM; in assay [1], 4.31 µM.
`O=C(Nc1cncc(-c2cc3c(-c4cc5c(-c6ccc(F)cc6)cccc5[nH]4)n[nH]c3cn2)c1)C1CCCCC1` [Compound 51, N-(5-(3-(4-(4-Fluorophenyl)-1H-indol-2-yl)-1H-pyrazolo[3,4-c]pyridin-5-yl)pyridin-3-yl)cyclohexanecarboxamide] had an EC50 in the assay with SW480 colon cancer cells of 9.62 µM. Moreover, in assay [1], the inhibition at 10 µM amounted to 32.6% and the EC50 was > 10 µM.
Consider `Fc1ccc(-c2cccc3[nH]c(-c4n[nH]c5cnc(-c6cncnc6)cc45)cc23)cc1` [Compound 55, 3-(4-(4-Fluorophenyl)-1H-indol-2-yl)-5-(pyrimidin-5-yl)-1H-pyrazolo[3,4-c]pyridine], for which, in the assay with SW480 colon cancer cells, the inhibition at 10 µM worked out at 13.6% and the EC50 was > 10 µM. The compound also came in with an EC50 in assay [1] of 4.14 µM.
`CC(C)C(=O)Nc1cncc(-c2cc3c(-c4cc5c(-c6ccccc6F)cccc5[nH]4)n[nH]c3cn2)c1` [Compound 65, N-(5-(3-(4-(2-Fluorophenyl)-1H-indol-2-yl)-1H-pyrazolo[3,4-c]pyridin-5-yl)pyridin-3-yl)isobutyramide]: the EC50 in the assay on SW480 colon cancer cells was found to be 5.05 µM. In assay [1], the inhibition at 10 µM was determined as 35.8% and the concentration for a half-maximal effect (EC50) was > 10 µM.
As to `CCCCC(=O)Nc1cncc(-c2cc3c(-c4cc5c(-c6ccccc6F)cccc5[nH]4)n[nH]c3cn2)c1` [Compound 75, N-(5-(3-(4-(2-Fluorophenyl)-1H-indol-2-yl)-1H-pyrazolo[3,4-c]pyridin-5-yl)pyridin-3-yl)pentanamide], the inhibition at 10 µM was found to be 10.7% in the assay on SW480 colon cancer cells and 11.1% in assay [1]. The EC50 (with SW480 colon cancer cells; in assay [1]) was > 10 µM throughout.
As to `O=C(Nc1cncc(-c2cc3c(-c4cc5c(-c6ccccc6F)cccc5[nH]4)n[nH]c3cn2)c1)C1CC1` [Compound 76, N-(5-(3-(4-(2-Fluorophenyl)-1H-indol-2-yl)-1H-pyrazolo[3,4-c]pyridin-5-yl)pyridin-3-yl)cyclopropanecarboxamide], the concentration for a half-maximal effect (EC50) was found to be 6.55 µM in the assay with SW480 colon cancer cells and 0.94 µM in assay [1].
For the compound `Cc1ccncc1-c1cc2c(-c3cc4c(-c5ccncc5)cccc4[nH]3)n[nH]c2cn1` [Compound 117, 5-(4-Methylpyridin-3-yl)-3-(4-(pyridin-4-yl)-1H-indol-2-yl)-1H-pyrazolo [3,4-c]pyridine], in the assay on SW480 colon cancer cells, the inhibition at 10 µM was determined as 16.6% and the EC50 is > 10 µM. For the same compound, in assay [1], the inhibition at 10 µM amounted to 43.1% and the concentration giving a half-maximal response (EC50) was > 10 µM.
`CC(C)(C)C(=O)Nc1cncc(-c2cc3c(-c4cc5c(-c6ccncc6)cccc5[nH]4)n[nH]c3cn2)c1` [Compound 120, N-(5-(3-(4-(Pyridin-4-yl)-1H-indol-2-yl)-1H-pyrazolo[3,4-c]pyridin-5-yl)pyridin-3-yl)pivalamide]: in the assay on SW480 colon cancer cells, the inhibition at 10 µM turned out to be 32.2% and the half-maximal effective concentration (EC50) was > 10 µM. In assay [1], the response was half-maximal at 0.194 µM (EC50).
For `CC(C)(C)CC(=O)Nc1cncc(-c2cc3c(-c4cc5c(-c6ccncc6)cccc5[nH]4)n[nH]c3cn2)c1` [Compound 128, 3,3-Dimethyl-N-(5-(3-(4-(pyridin-4-yl)-1H-indol-2-yl)-1H-pyrazolo[3,4-c]pyridin-5-yl)pyridin-3-yl)butanamide], the inhibition at 10 µM was determined as 14% in the assay on SW480 colon cancer cells and 46.5% in assay [1]. The half-maximal effective concentration (EC50) (in the assay with SW480 colon cancer cells; in assay [1]) was > 10 µM in each case.
On to `O=C(Nc1cncc(-c2cc3c(-c4cc5c(-c6ccncc6)cccc5[nH]4)n[nH]c3cn2)c1)C1CCC1` [Compound 133, N-(5-(3-(4-(Pyridin-4-yl)-1H-indol-2-yl)-1H-pyrazolo[3,4-c]pyridin-5-yl)pyridin-3-yl)cyclobutanecarboxamide], for which, in the assay with SW480 colon cancer cells, the inhibition at 10 µM worked out at 45.9% and the half-maximal effective concentration (EC50) was > 10 µM. Besides, in assay [1], the midpoint of the response, the EC50, lay at 0.401 µM.
For `c1cc(-c2ccncc2)c2cc(-c3n[nH]c4cnc(-c5cncnc5)cc34)[nH]c2c1` [Compound 139, 3-(4-(Pyridin-4-yl)-1H-indol-2-yl)-5-(pyrimidin-5-yl)-1H-pyrazolo[3,4-c]pyridine] the same measures were 15.5%, > 10 µM and 1.23 µM.
For `O=C(Nc1cncc(-c2cc3c(-c4cc5c(N6CCCCC6)cccc5[nH]4)n[nH]c3cn2)c1)C1CC1` [Compound 188, N-(5-(3-(4-(Piperidin-1-yl)-1H-indol-2-yl)-1H-pyrazolo[3,4-c]pyridin-5-yl)pyridin-3-yl)cyclopropanecarboxamide], in that order: 25.3%, > 10 µM and 2.42 µM.
Take `FC1(F)CCN(Cc2cncc(-c3cc4c(-c5cc6c(N7CCCCC7)cccc6[nH]5)n[nH]c4cn3)c2)C1` [Compound 194, 5-(5-((3,3-Difluoropyrrolidin-1-yl)methyl)pyridin-3-yl)-3-(4-(piperidin-1-yl)-1H-indol-2-yl)-1H-pyrazolo[3,4-c]pyridine]: the EC50 in the assay with SW480 colon cancer cells turned out to be 6.21 µM; in assay [1] it was 1.83 µM.
Regarding `CN1CCN(c2cccc3[nH]c(-c4n[nH]c5cnc(-c6cncc(NC(=O)C7CCC7)c6)cc45)cc23)CC1` [Compound 245], in the assay with SW480 colon cancer cells, the inhibition at 10 µM worked out at 64.6% and the EC50 was > 10 µM. In addition, a half-maximal response in assay [1] (EC50) required 1.97 µM.
For `CC(C)(C)CC(=O)Nc1cncc(-c2cc3c(-c4cc5ccccc5[nH]4)n[nH]c3cn2)c1` [Compound 268, N-(5-(3-(1H-Indol-2-yl)-1H-pyrazolo[3,4-c]pyridin-5-yl)pyridin-3-yl)-3,3-dimethylbutanamide], in that order: 4.5%, > 10 µM and 0.615 µM.
For `O=C(Nc1cncc(-c2cc3c(-c4cc5ccccc5[nH]4)n[nH]c3cn2)c1)C1CCCCC1` [Compound 275, N-(5-(3-(1H-Indol-2-yl)-1H-pyrazolo[3,4-c]pyridin-5-yl)pyridin-3-yl) cyclohexanecarboxamide] the same measures were 35.4%, > 10 µM and 0.635 µM.
For `CS(=O)(=O)NCc1cc(F)cc(-c2cccc3[nH]c(-c4n[nH]c5cnc(-c6cncc(NC(=O)c7ccccc7)c6)cc45)cc23)c1` [Compound 487, N-(5-(3-(4-(3-Fluoro-5-(methylsulfonamidomethyl)phenyl)-1H-indol-2-yl)-1H-pyrazolo[3,4-c]pyridin-5-yl)pyridin-3-yl)benzamide], in that order: 45.4%, > 10 µM and 0.8 µM.
For `Nc1cncc(-c2cc3c(-c4cc5ncccc5[nH]4)n[nH]c3cn2)c1` [Compound 507, 5-(3-(1H-Pyrrolo[3,2-b]pyridin-2-yl)-1H-pyrazolo[3,4-c]pyridin-5-yl) pyridin-3-amine], the EC50 in the assay on SW480 colon cancer cells was 1.23 µM; in assay [1], 0.248 µM.
As for `c1cnc2cc(-c3n[nH]c4cnc(-c5cncc(CNCC6CCCC6)c5)cc34)[nH]c2c1` [Compound 529, 1-(5-(3-(1H-Pyrrolo[3,2-b]pyridin-2-yl)-1H-pyrazolo[3,4-c]pyridin-5-yl)pyridin-3-yl)-N-(cyclopentylmethyl)methanamine], the inhibition at 10 µM in the assay with SW480 colon cancer cells amounted to 0%. Moreover, the 50% effective concentration (EC50) with SW480 colon cancer cells was > 10 µM; in assay [1] it was 2.31 µM.
For `Fc1ccccc1-c1cccc2[nH]c(-c3n[nH]c4cnc(-c5cn[nH]c5)cc34)cc12` [Compound 567, 3-(4-(2-Fluorophenyl)-1H-indol-2-yl)-5-(1H-pyrazol-4-yl)-1H-pyrazolo[3,4-c]pyridine] the same measures were 46.1%, > 10 µM and 0.203 µM.

For orientation: EC50 means the concentration needed to bring the measured effect to its halfway point. By inhibition is commonly meant the share of the control response that was lost under treatment.
